# Measurements taken from article PMC4836799, “Experimental and Theoretical Evaluation of the Ethynyl Moiety as a Halogen Bioisostere” (ACS Chemical Biology, 2015).
# pKd: −log10 of the molar value. Where “and” joins values, the source holds several entries; their conditions need not be identical. Equal entries are not always repeated.
# Legend:
# [1] = molecular target: T1, p53-Y220C DNA-binding domain (Homo sapiens, UniProt P04637, M133L/N239Y/N268D/V203A/Y220C); test: Competition ITC with PK5174 (1) as coupling ligand
# T1 construct: made in house
# Description: We assessed the binding of 3 to the stabilized DNA-binding domain of the p53 mutant Y220C (residues 94–312) using an array of biophysical techniques. […] Because the competition titration could not be performed at a c-value of 2 or higher, it was not possible to reliably decompose ΔG into ΔH and ΔS.[25]
# All ITC experiments were conducted using a Microcal iTC200 calorimeter as previously described.[14] Briefly, protein and compounds were dissolved in 25 mM KPi, pH 7.2, 150 mM NaCl, 1 mM TCEP in 5% (v/v) DMSO. The cell unit contained 80 μM protein, and 2 mM compound was used for the syringe. The ITC competition experiment was conducted using 500 μM of compound 3 and 50 μM protein for the cell sample and 2 mM of compound 1 in the syringe. The actual and apparent binding constants for 1 were calculated with MicroCal Origin software using a standard one-site model. The binding constant of 3 was then calculated using an equation for ITC displacement titrations described by Zhang and Zhang[24] [drawing 2]
# T-p53C-Y220C = molecular target: T2, T-p53C-Y220C (Homo sapiens, UniProt P04637, M133L/N239Y/N268D/V203A/Y220C); test: Differential scanning fluorimetry (DSF); type: binding; settings: 10 μM protein
# T2 construct: made in house
# Description: The effect of compounds on the melting temperature of T-p53C-Y220C were monitored using SYPRO Orange (Invitrogen, USA) as a fluorescent probe, which quantitatively binds to hydrophobic protein patches exposed upon thermal denaturation. Real-time melt analysis was performed using a Corbett Rotor-Gene 6000 real-time qPCR thermocycler. Excitation and emission filters were set to 460 and 510 nm, respectively. Heating from 28 to 60 °C, a constant heating rate of 270 K/h was applied. The protein (final concentration of 10 μM) was briefly mixed with SYPRO orange (10x) in buffer (25 mM KPi pH 7.2, 150 mM NaCl, 1 mM TCEP), and compound (5 mM) dissolved in DMSO was added to give a final compound concentration of 250 μM in 5% (v/v) DMSO. The melting temperature (Tm) of the protein (10 μM) in the presence of compounds was determined from the inflection point of the melting curve. Melting temperatures were compared with control samples without compound (yielding ΔTm DSF). All samples were measured in triplicate.
compound,measurement,setting,value
"C#Cc1cc(C#CCOc2ccccc2)cc(CN2CCC(N(CC)CC)CC2)c1O [PK5211, 2-((4-(diethylamino)piperidin-1-yl)methyl)-6-ethynyl-4-(3-phenoxyprop-1-ynyl)phenol]",pKd,"[1]; competition with PK5174 (1), 500 μM compound 3, equation of Zhang and Zhang, read-out: KD determined indirectly by competition ITC",~3.57 and 3.57
same,loss in affinity,[1]; ethynyl compound 3 versus iodo compound 2,approximately 13 fold
same,thermal stabilization of the mutant protein (Tm),T-p53C-Y220C,concentration-dependent thermal stabilization
same,thermal stabilization of the mutant protein (Tm),T-p53C-Y220C; listed as 3,concentration-dependent increase of the protein melting point
